Results published in ChEMBL document CHEMBL3046704, “Control of Muhlenbergia frondosa (wirestem muhly) with post-emergence sulfonylurea herbicides in maize (Zea mays)” (Crop Prot, 2007).

Columns and labels:
Muhlenbergia [1] = test: Post-emergence herbicidal activity against Muhlenbergia frondosa assessed as reduction in density at 35 g a.i./ha measured after 56 days in presence of 28% UAN relative to untreated-control; format: functional; design: scale not given: the % may be the effect or the level left
Muhlenbergia [2] = test: Post-emergence herbicidal activity against Muhlenbergia frondosa at 35 g a.i./ha measured after 56 days in presence of 28% UAN relative to untreated-control; format: functional
Zea mays [3] = test: Phytotoxicity against Zea mays (maize) crop assessed as crop injury at 35 g a.i./ha measured after 7 days in presence of 28% UAN relative to control; format: organism-based; details: in vivo, 168 h
Muhlenbergia [4] = test: Post-emergence herbicidal activity against Muhlenbergia frondosa at 35 g a.i./ha measured after 28 days in presence of 28% UAN relative to untreated-control; format: functional
Muhlenbergia [5] = test: Post-emergence herbicidal activity against Muhlenbergia frondosa assessed as increase in maize yield at 35 g a.i./ha in presence of 28% UAN relative to untreated-control; format: functional
Muhlenbergia [6] = test: Post-emergence herbicidal activity against Muhlenbergia frondosa assessed as reduction in dry weight at 35 g a.i./ha measured after 56 days in presence of 28% UAN relative to untreated-control; format: functional; design: scale not given: the % may be the effect or the level left
Muhlenbergia [7] = test: Post-emergence herbicidal activity against Muhlenbergia frondosa at 25 g a.i./ha measured after 28 days in presence of Agral 90 relative to untreated-control; format: functional
Muhlenbergia [8] = test: Post-emergence herbicidal activity against Muhlenbergia frondosa assessed as reduction in density at 25 g a.i./ha measured after 56 days in presence of Agral 90 relative to untreated-control; format: functional; design: scale not given: the % may be the effect or the level left
Elymus repens [9] = test: Post-emergence herbicidal activity against Elymus repens (couch grass) at 35 g/ha relative to control; format: functional
Muhlenbergia [10] = test: Post-emergence herbicidal activity against Muhlenbergia frondosa at 25 g a.i./ha measured after 56 days in presence of Agral 90 relative to untreated-control; format: functional
Muhlenbergia [11] = test: Post-emergence herbicidal activity against Muhlenbergia frondosa assessed as reduction in dry weight at 25 g a.i./ha measured after 56 days in presence of Agral 90 relative to untreated-control; format: functional; design: scale not given: the % may be the effect or the level left
Muhlenbergia [12] = test: Post-emergence herbicidal activity against Muhlenbergia frondosa assessed as increase in maize yield at 25 g a.i./ha in presence of Agral 90 relative to untreated-control; format: functional
Zea mays [13] = test: Phytotoxicity against Zea mays (maize) crop assessed as crop injury at 25 g a.i./ha measured after 7 days in presence of Agral 90 relative to control; format: organism-based; details: in vivo, 168 h
Elymus repens [14] = test: Post-emergence herbicidal activity against Elymus repens (couch grass) relative to control; format: functional
Muhlenbergia [15] = test: Post-emergence herbicidal activity against Muhlenbergia frondosa assessed as maize yield at 25 g a.i./ha in presence of Agral 90 (reference value: 9.64 tons/ha); format: functional
Muhlenbergia [16] = test: Post-emergence herbicidal activity against Muhlenbergia frondosa assessed as dry weight at 25 g a.i./ha measured after 56 days in presence of Agral 90 (reference value: 102 g); format: functional
Muhlenbergia [17] = test: Post-emergence herbicidal activity against Muhlenbergia frondosa assessed as number of plants at 25 g a.i./ha measured after 56 days in presence of Agral 90 (reference value: 41 /m2); format: functional
Elymus repens [18] = test: Post-emergence herbicidal activity against Elymus repens (couch grass) at 42 g/ha relative to control; format: functional
Muhlenbergia [19] = test: Post-emergence herbicidal activity against Muhlenbergia frondosa at 15 g a.i./ha measured after 28 days in presence of Agral 90 relative to untreated-control; format: functional
Muhlenbergia [20] = test: Post-emergence herbicidal activity against Muhlenbergia frondosa assessed as dry weight at 15 g a.i./ha measured after 56 days in presence of Agral 90 (reference value: 102 g); format: functional
Zea mays [21] = test: Phytotoxicity against Zea mays (maize) crop assessed as crop injury at 15 g a.i./ha measured after 7 days in presence of Agral 90 relative to control; format: organism-based; details: in vivo, 168 h
Muhlenbergia [22] = test: Post-emergence herbicidal activity against Muhlenbergia frondosa at 15 g a.i./ha measured after 56 days in presence of Agral 90 relative to untreated-control; format: functional
Muhlenbergia [23] = test: Post-emergence herbicidal activity against Muhlenbergia frondosa assessed as number of plants at 15 g a.i./ha measured after 56 days in presence of Agral 90 (reference value: 41 /m2); format: functional
Muhlenbergia [24] = test: Post-emergence herbicidal activity against Muhlenbergia frondosa assessed as increase in maize yield at 15 g a.i./ha in presence of Agral 90 relative to untreated-control; format: functional

## COc1cc(OC)nc(NC(=O)NS(=O)(=O)c2cc(NC=O)ccc2C(=O)N(C)C)n1 [FORAMSULFURON]
Muhlenbergia [1]
  Activity: 76%
Muhlenbergia [2]
  Activity: 89%
Zea mays [3]
  Activity: 1.1%
Muhlenbergia [4]
  Activity: 80%
Muhlenbergia [5]
  Activity: 17%
Muhlenbergia [6]
  Activity: 94%

## COc1cc(OC)nc(NC(=O)NS(=O)(=O)c2ncccc2C(=O)N(C)C)n1 [NICOSULFURON]
Muhlenbergia [7]
  Activity: 49%
Muhlenbergia [8]
  Activity: 44%
Elymus repens [9]
  Activity: 97%
Muhlenbergia [10]
  Activity: 32%
Muhlenbergia [11]
  Activity: 70%
Muhlenbergia [12]
  Activity: 22%
Zea mays [13]
  Activity: 1.1%
Elymus repens [14]
  Activity: 89%

## O=C(Nc1nc(OC(F)F)cc(OC(F)F)n1)NS(=O)(=O)c1ccccc1C(=O)O [PRIMISULFURON]
Muhlenbergia [7]
  Activity: 32%
Muhlenbergia [15]
  Crop_yield: 10.1 tons/ha
Muhlenbergia [10]
  Activity: 12%
Muhlenbergia [16]
  Activity: 78 g
Muhlenbergia [17]
  Activity: 39 /m2
Elymus repens [18]
  Activity: 94%
Zea mays [13]
  Activity: 1.2%
Elymus repens [14]
  Activity: 80%

## CCS(=O)(=O)c1cccnc1S(=O)(=O)NC(=O)Nc1nc(OC)cc(OC)n1 [RIMSULFURON]
Muhlenbergia [19]
  Activity: 32%
Muhlenbergia [20]
  Activity: 72 g
Zea mays [21]
  Activity: 1.2%
Muhlenbergia [22]
  Activity: 14%
Muhlenbergia [23]
  Activity: 44 /m2
Muhlenbergia [24]
  Activity: 11%
Elymus repens [14]
  Activity: 63%
